Data as given in PMC4404333, “Identification of Selective Inhibitors of the Plasmodium falciparum Hexose Transporter PfHT by Screening Focused Libraries of Anti-Malarial Compounds” (PLoS ONE, 2015).
≈ marks a conversion by molar mass, not a printed value. Where “and” joins values, the source holds several entries; their conditions need not be identical. Identical values can stand only once. Counter-ions that a name gives are not always drawn. Like-named read-outs stand apart in the source and are kept apart here.

Experiments:
[1] = Parallel artificial membrane permeability assay (PAMPA); conditions: for Permeation: pH 7.4; for Retention: retention in artificial membrane
Experimental: A parallel artificial membrane permeability assay (PAMPA) was conducted on a Biomek FX lab automation workstation (Beckman Coulter, Inc.) with PAMPA evolution 96 command software (pION Inc.) as follows: 3 μL of 10 mM test compound stock was mixed with 600 μL of PBS (pH 7.4) to make diluted test compound. Then 150 μL of diluted test compound was transferred to a UV plate (pION Inc.), and the UV spectrum was read as the reference plate. The membrane on a preloaded PAMPA sandwich (pION Inc.) was painted with 4 μL of GIT lipid (pION Inc.). The acceptor chamber was then filled with 200 μL of acceptor solution buffer (pION Inc.), and the donor chamber was filled with 180 μL of diluted test compound. The PAMPA sandwich was assembled, placed on the Gut-Box controlled environment chamber and stirred for 30 min. The aqueous boundary layer was set to 40 μm for stirring. The UV spectrum (250–500 nm) of the donor and the acceptor were read. The permeability coefficient was calculated using PAMPA Evolution 96 Command software (pION Inc.) based on the AUC of the reference plate, the donor plate, and the acceptor plate. All compounds were tested in triplicate.

Solubility assay = type: physicochemical; conditions: aqueous buffer, kinetic from dmso stock, PBS pH 7.4, room temperature
Experimental: Next, 5 μL of this reference stock plate was mixed with 70 μL of 1-propanol and 75 μL of PBS (pH 7.4) to make the reference plate, and the UV spectrum (250–500 nm) of the reference plate was read. Then, 6 μL of 10 mM test compound stock was added to 600 μL of PBS, pH 7.4, in a 96-well storage plate and mixed. The storage plate was sealed and incubated at room temperature for 18 h. The suspension was then filtered through a 96-well filter plate (pION Inc.). Next, 75 μL of filtrate was mixed with 75 μL of 1-propanol to make the sample plate, and the UV spectrum of the sample plate was read. Calculations were done using μSOL Evolution software based on the area under the curve (AUC) of the UV spectrum of the sample plate and the reference plate. All compounds were tested in triplicate.

P. falciparum strain K1 = experiment: Proliferation of intraerythrocytic P. falciparum K1 (SYBR Green, 72 h); type: cell-based, Plasmodium falciparum; conditions: Plasmodium falciparum, K1, 72 h, read-out: Pf K1 EC50
Experimental: (§1) Two P. falciparum strains were used in this study and were provided by the MR4 Unit of the American Type Culture Collection (ATCC, Manassas, VA). Those two strains were the chloroquine sensitive strain 3D7 and the K1 strain that is resistant to chloroquine, pyrimethamine, and sulfadoxine.
(§2) Asynchronous parasites were maintained in culture based on the method of Trager. Parasites were grown in presence of fresh group O-positive erythrocytes (Key Biologics, LLC) in Petri dishes at a hematocrit of 4–6% in RPMI based media (RPMI 1640 supplemented with 0.5% AlbuMAX II, 25 mM HEPES, 25 mM NaHCO3 (pH 7.3), 100 μg/mL hypoxanthine, and 5 μg/mL gentamycin). Cultures were incubated at 37°C in a gas mixture of 90% N2, 5% O2, 5% CO2. For EC50 determinations, 20 μL of RPMI 1640 with 5 μg/mL gentamycin were dispensed per well in an assay plate (Corning 384-well microtiter plate, clear bottom, tissue culture treated, catalog no. 8807BC). 40 nL of compound, previously serially diluted in a separate 384-well white polypropylene plate (Corning, catalog no. 8748BC), was dispensed to the assay plate by hydrodynamic pin transfer (FP1S50H, V&P Scientific Pin Head) and then 20 μL of a synchronized culture suspension (1% rings, 4% hematocrit) was added to each well, thus making a final hematocrit and parasitemia of 2% and 1%, respectively. Assay plates were incubated for 72 h, and the parasitemia was determined by a method previously described: Briefly, 10 μL of the assay solution in PBS (10X SYBR Green I, 0.5% v/v triton X-100, 0.5 mg/mL saponin) was added to each well. Assay plates were shaken for 1 min, incubated in the dark for 90 min, and read with an Envision (Perkin Elmer) spectrophotometer at Ex/Em of 485 nm/535 nm. EC50s were calculated with a custom program (RISE, Robust Investigation of Screening Experiments) using a four-parameter logistic equation.

P. falciparum strain 3D7 = experiment: Proliferation of intraerythrocytic P. falciparum 3D7 (SYBR Green, 72 h); type: cell-based, Plasmodium falciparum; conditions: Plasmodium falciparum, 3D7, 72 h, read-out: Pf 3D7 EC50
Experimental: as §1, §2

[2] = tested on: P. falciparum strain 3D7 intraerythrocytic forms; set-up: method as in PubChem web site, http://pubchem.ncbi.nlm.nih.gov/; conditions: reported values; ref PubChem web site, http://pubchem.ncbi.nlm.nih.gov/; read-out: EC50 3D7 In vitro; cited from earlier work
PfHT = PfHT (Plasmodium falciparum, UniProt Q7KWJ5); experiment: Uptake of [3H] D-glucose by L. mexicana Δlmxgt1-3 null mutants expressing PfHT; type: cell-based; set-up: expressed in transfected cells; host or cells: Leishmania mexicana promastigotes, Δlmxgt1-3 hexose transporter null mutant; conditions: for SIglucose GLUT1/PfHT (Specificity Index, IC50 for GLUT1/IC50 for PfHT): uptake of 100 μM [3H] D-glucose; for Ki: linear regression; for Vmax: glucose uptake by PfHT
Sequence of PfHT (Q7KWJ5 whole entry): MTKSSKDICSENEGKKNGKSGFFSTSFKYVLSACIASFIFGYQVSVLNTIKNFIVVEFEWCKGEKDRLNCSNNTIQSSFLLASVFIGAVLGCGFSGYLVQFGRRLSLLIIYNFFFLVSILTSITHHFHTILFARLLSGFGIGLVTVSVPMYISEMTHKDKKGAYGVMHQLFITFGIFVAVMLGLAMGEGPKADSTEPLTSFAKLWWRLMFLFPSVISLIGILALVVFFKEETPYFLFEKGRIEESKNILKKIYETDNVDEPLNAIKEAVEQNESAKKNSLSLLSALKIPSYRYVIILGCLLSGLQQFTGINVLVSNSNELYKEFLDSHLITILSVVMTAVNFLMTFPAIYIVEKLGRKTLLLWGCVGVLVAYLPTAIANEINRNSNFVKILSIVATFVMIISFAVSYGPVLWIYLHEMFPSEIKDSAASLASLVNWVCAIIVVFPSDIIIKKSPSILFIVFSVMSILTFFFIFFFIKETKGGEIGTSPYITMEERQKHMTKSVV
Experimental: (§3) Glucose uptake assays employed logarithmic phase L. mexicana promastigotes of the Δlmxgt1-3 hexose transporter null mutant strain expressing either PfHT or GLUT1 from an episomal expression vector [17]. Parasites (1x10^7) were resuspended in 100 μL phosphate buffered saline, pH 7.4. Prior to uptake, parasites were pre-incubated for 5 min with inhibitor, and uptake was initiated by adding 100 μL of 200 μM [^3H] D-glucose diluted to 4.0 μCi/mL. Uptake was terminated, typically after 1 min, by centrifuging the parasites through a layer of dibutyl phthalate, as described. Control uptake assays employing [^3H] hypoxanthine, [^3H] uridine, and [^3H] L-proline were performed similarly. Analysis of kinetic data was performed using Graph Pad Prism 4.0b software (Graph Pad).

human GLUT1 = target: T1, human GLUT1 (Homo sapiens, UniProt P11166); experiment: Uptake of [3H] D-glucose by L. mexicana Δlmxgt1-3 null mutants expressing GLUT1; type: cell-based; set-up: expressed in transfected cells; host or cells: Leishmania mexicana promastigotes, Δlmxgt1-3 hexose transporter null mutant; conditions: inhibition of uptake of 100 μM [3H] D-glucose, 1 min uptake assay
T1 sequence (P11166 1-492): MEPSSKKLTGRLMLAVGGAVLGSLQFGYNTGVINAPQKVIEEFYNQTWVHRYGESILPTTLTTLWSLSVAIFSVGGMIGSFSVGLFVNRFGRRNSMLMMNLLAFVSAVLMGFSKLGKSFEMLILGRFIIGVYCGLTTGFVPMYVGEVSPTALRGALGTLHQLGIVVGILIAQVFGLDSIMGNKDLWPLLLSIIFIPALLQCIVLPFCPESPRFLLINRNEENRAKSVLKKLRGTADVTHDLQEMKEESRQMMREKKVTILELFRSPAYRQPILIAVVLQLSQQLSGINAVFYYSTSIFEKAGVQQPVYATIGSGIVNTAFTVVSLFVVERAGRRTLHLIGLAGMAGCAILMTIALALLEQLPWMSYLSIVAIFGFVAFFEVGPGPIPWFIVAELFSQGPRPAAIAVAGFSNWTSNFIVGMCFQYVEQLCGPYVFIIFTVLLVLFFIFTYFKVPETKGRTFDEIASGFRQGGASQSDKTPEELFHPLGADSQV
Experimental: as §3

[3] = read-out: IC50 PfHT, inhibition of uptake of 100 μM [3H] D-glucose, 1 min uptake assay

SMILES | EC50 [2] | IC50 (PfHT) | SIglucose GLUT1/PfHT (Specificity Index, IC50 for GLUT1/IC50 for PfHT) (PfHT) | IC50 (human GLUT1) | further results
CCCSc1ccc2nc(NC(=O)OC)[nH]c2c1 [Albendazole, albendazole, reference compound] | – | – | – | – | Permeation [1]: 286 ND 10^-6 cm/s; Retention [1]: 59 ± 27%; solubility at 18 h (Solubility assay): 5.9 ± 2.3 µM (≈ 1.57 µg/mL)
NC(=O)N1c2ccccc2C=Cc2ccccc21 [Carbamazepine, carbamazepine, reference compound] | – | – | – | – | Permeation [1]: 85 ± 21 10^-6 cm/s; Retention [1]: 43 ± 3.0%; solubility at 18 h (Solubility assay; PBS buffer): 87 ± 1.2 µM (≈ 20.6 µg/mL)
CCN(CC)CCCC(C)Nc1ccnc2cc(Cl)ccc12 (centres unmarked) [Chloroquine, chloroquine, reference compound] | – | – | – | – | EC50 (P. falciparum strain K1): 810 nM; EC50 (P. falciparum strain 3D7): 80 nM
CCC(C)(CC)C(=O)n1ncc2c3c(N)nc(N)nc3ccc21 [Compound 2] | 10 nM | 3 µM | 15 | 44 µM | –
CC(C)C(C(=O)n1ncc2c3c(N)nc(N)nc3ccc21)C(C)C [Compound 3] | 650 nM | 1.1 µM | 7.4 | 8.1 µM | –
CCC(C)(C)C1CCc2[nH]c3ccccc3c(=O)c2C1 (centres unmarked) [Compound 4] | 380 nM | 27 µM | 0.21 | 5.7 µM | –
COc1ccc(Nc2cc(C)nc(Nc3ccc(NC(C)=O)cc3)n2)cc1 [Compound 5] | 860 nM | 3.4 µM | 0.073 | 0.25 µM | –
Cc1cc(=O)[nH]c(-n2nc(C)cc2NC(=O)C(c2ccccc2)c2ccccc2)n1 [Compound 6] | 840 nM | 12 µM | 0.055 | 0.66 µM | –
O=C1c2ccc3c4c(ccc(c24)C(=O)N1CCCCO)C(=O)N(CCCCO)C3=O [Compound 7] | 790 nM | 0.051 µM | 71 | 3.6 µM and > 3 µM | selective inhibition of PfHT versus GLUT1 (PfHT): 71 fold; Ki (PfHT; Kic (Ki for binding of inhibitor to free transporter), from plot of Km/Vmax versus [I]): 93 nM; Ki (PfHT; Kiu (Ki for binding of inhibitor to substrate-bound transporter), from plot of 1/Vmax versus [I]): 91 nM; Vmax (PfHT; [I] 100 nM): 274 ± 71 pmol per 10^7 cells per min; Vmax (PfHT; [I] 300 nM): 128 ± 42 pmol per 10^7 cells per min; mode of inhibition of glucose uptake through PfHT (PfHT; substrate saturation curves, one-way ANOVA of Vmax and Km): non-competitive inhibitors
CC(C)(C)C(=O)Nc1ccc(C(=O)Nc2cccc(-c3nc4ccccc4[nH]3)c2)cc1 [Compound 8] | 280 nM | 2.7 µM | 0.14 | 0.37 µM | –
CCN1CCN(Cc2ccc(NC(=O)c3cc4ccc5cccnc5c4[nH]3)cc2)CC1 [Compound 9] | 380 nM | 3.5 µM | 2.7 | 9.5 µM | –
COc1ccc(Nc2ccc3cc(S(=O)(=O)N4CCCCC4C)ccc3n2)cc1Cl (centres unmarked) [Compound 11] | – | 0.94 µM | 65 | 61 µM | selective inhibition of PfHT versus GLUT1 (PfHT): 65 fold
COc1ccccc1Nc1ccc2cc(S(=O)(=O)N3CCCC3)ccc2n1 [Compound 14] | – | – | – | 6.3 µM | IC50 (PfHT; [3]): > 10 µM
COc1ccc(Nc2ccc3cc(S(=O)(=O)N4CCOCC4)ccc3n2)cc1OC [Compound 15] | – | 3.1 µM | 0.27 | 0.84 µM | –
Cc1ccc(C(=O)Nc2cccc(-c3nc4ccccc4[nH]3)c2)cc1 [Compound 16] | – | 23 µM | 2–3 and 3.1 | 72 µM | –
Cc1cccc(C(=O)Nc2cccc(-c3nc4ccccc4[nH]3)c2)c1 [Compound 17] | – | 13 µM | 0.92 | 12 µM | –
Cc1cc(C)cc(C(=O)Nc2cccc(-c3nc4ccccc4[nH]3)c2)c1 [Compound 18] | – | 16 µM | 0.75 | 12 µM | –
O=C(Nc1cccc(-c2nc3ccccc3[nH]2)c1)c1ccccc1 [Compound 19] | – | 5.3 µM | 2–3 and 2.1 | 11 µM | –
CC(C)(C)c1ccc(C(=O)Nc2cccc(-c3nc4ccccc4[nH]3)c2)cc1 [Compound 20] | – | – | – | 31 µM | IC50 (PfHT; [3]): > 10 µM
CC(C)(C)C(=O)Nc1ccc(C(=O)Nc2ccc(-c3nc4ccccc4[nH]3)cc2)cc1 [Compound 21] | – | 91 µM | 0.12 | 11 µM | –
OC(c1cc(C(F)(F)F)nc2c(C(F)(F)F)cccc12)C1CCCCN1 (centres unmarked) [Mefloquine, mefloquine, reference compound] | – | – | – | – | EC50 (P. falciparum strain K1; multi-drug resistant strain K1, 72 h): 20 nM; EC50 (P. falciparum strain 3D7; chloroquine sensitive strain 3D7, 72 h): 120 nM
CNC(=C[N+](=O)[O-])NCCSCc1ccc(CN(C)C)o1 [Ranitidine HCl, ranitidine, reference compound] | – | – | – | – | Permeation [1]: 0 ± 0 10^-6 cm/s; Retention [1]: 1.7 ± 1.3%; solubility at 18 h (Solubility assay; PBS buffer): 84 ± 1.2 µM
